In brackets after ≈: the same amount, converted by molar mass. Read-outs that look alike come from different tables or passages of the source.
Legend:
[1] = system: human melanoma cell line SK-MEL-2 (인간 흑색종암 세포주 (SK-MEL-2)); assay: SRB cytotoxicity test, human melanoma cell line SK-MEL-2; type: cell-based
[2] = system: human colon cancer cell line HCT15 (인간 결장암 세포주 (HCT15)); assay: SRB cytotoxicity test, human colon cancer cell line HCT15; type: cell-based
[3] = system: human ovarian cancer cell line SK-OV-3 (인간 난소암 세포주 (SK-OV-3)); assay: SRB cytotoxicity test, human ovarian cancer cell line SK-OV-3; type: cell-based
[4] = system: human lung cancer cell line A549 (인간 폐암 세포주 (A549)); assay: SRB cytotoxicity test, human lung cancer cell line A549; type: cell-based
[5] = system: human central nervous system cancer cell line XF498 (인간 중추 신경계암 세포주 (XF498)); assay: SRB cytotoxicity test, human central nervous system cancer cell line XF498; type: cell-based
[6] = system: human ovarian cancer cell line (SK-OV-3) (인간 난소암 세포주(SK-OV-3)); details: literature (Y. S. Kim et al. 2003); cited from earlier work
[7] = SK-MEL-2, SRB assay, 48 h incubation, read-out: ED50 (the source's name)
[8] = HCT 15, SRB assay, 48 h incubation, read-out: ED50 (the source's name)
[9] = SK-OV-3, SRB assay, 48 h incubation, read-out: ED50 (the source's name)
[10] = A549, SRB assay, 48 h incubation, read-out: ED50 (the source's name)
[11] = XF498, XF 498, SRB assay, 48 h incubation, read-out: ED50 (the source's name)

Compound | IC50 ([1]; SK-MEL-2, 48 h, read-out: ED50) | IC50 ([2]; HCT-15, 48 h, read-out: ED50) | IC50 ([3]; SK-OV-3, 48 h, read-out: ED50) | IC50 ([4]; A549, 48 h, read-out: ED50) | IC50 ([5]; XF498, 48 h, read-out: ED50) | IC50 [1, 7] | IC50 [2, 8] | IC50 [3, 9] | IC50 [4, 10] | IC50 [5, 11] | anticancer effect compared with doxorubicin [6]
COc1cccc2c1C(=O)c1c(O)c3c(c(O)c1C2=O)C[C@@](O)(C(=O)CO)C[C@@H]3O[C@H]1C[C@H](N)[C@H](O)[C@H](C)O1 [독소루비신, reference compound] | 0.11 µg/mL (≈ 0.202 µM) | 0.19 µg/mL (≈ 0.35 µM) | 0.21 µg/mL (≈ 0.386 µM) | 0.093 µg/mL (≈ 0.171 µM) | 0.187 µg/mL (≈ 0.344 µM) | – | – | – | – | – | –
O=C1C(=O)c2c(nc3ccccn23)-c2cnncc21 [실시예 6, 2,3,6b,11-테트라아자-벤조[a]플루오렌-5,6-디온] | – | – | – | – | – | 0.12 µg/mL (≈ 0.48 µM) | 0.1 µg/mL (≈ 0.4 µM) | 0.2 µg/mL (≈ 0.799 µM) | 0.022 µg/mL (≈ 0.0879 µM) | 0.12 µg/mL (≈ 0.48 µM) | –
Cc1ccc2nc3c(n2c1)C(=O)C(=O)c1cnncc1-3 [실시예 7, 8-메틸-2,3,6b,11-테트라아자-벤조[a]플루오렌-5,6-디온] | – | – | – | – | – | 1.77 µg/mL (≈ 6.7 µM) | 0.92 µg/mL (≈ 3.48 µM) | 1.01 µg/mL (≈ 3.82 µM) | 3.54 µg/mL (≈ 13.4 µM) | 1.77 µg/mL (≈ 6.7 µM) | –
Cc1cccc2nc3c(n12)C(=O)C(=O)c1cccnc1-3 [실시예 2, 7-메틸-1,6b,11-트리아자-벤조[3,2-a]플루오렌-5,6-디온] | – | – | – | – | – | 1.08 µg/mL (≈ 4.1 µM) | 0.71 µg/mL (≈ 2.7 µM) | 1.04 µg/mL (≈ 3.95 µM) | 0.23 µg/mL (≈ 0.874 µM) | 0.2 µg/mL (≈ 0.76 µM) | –
O=C1C(=O)c2c(nc3cnccn23)-c2ncccc21 [실시예 5, 1,6b,9,11-테트라아자-벤조[a]플루오렌-5,6-디온] | – | – | – | – | – | 0.032 µg/mL (≈ 0.128 µM) | 0.047 µg/mL (≈ 0.188 µM) | 0.02 µg/mL (≈ 0.0799 µM) | 0.051 µg/mL (≈ 0.204 µM) | 0.03 µg/mL (≈ 0.12 µM) | –
O=C1C(=O)c2c(nc3ncccn23)-c2ncccc21 [실시예 4, 1,6b,10,11-테트라아자-벤조[a]플루오렌-5,6-디온] | – | – | – | – | – | 0.034 µg/mL (≈ 0.136 µM) | 0.077 µg/mL (≈ 0.308 µM) | 0.061 µg/mL (≈ 0.244 µM) | 0.12 µg/mL (≈ 0.48 µM) | 0.081 µg/mL (≈ 0.324 µM) | –
Cc1cccn2c3c(nc12)-c1ncccc1C(=O)C3=O [실시예 1, 10-메틸-1,6b,11-트리아자-벤조[3,2-a]플루오렌-5,6-디온] | – | – | – | – | – | 0.11 µg/mL (≈ 0.418 µM) | 0.044 µg/mL (≈ 0.167 µM) | 0.073 µg/mL (≈ 0.277 µM) | 0.054 µg/mL (≈ 0.205 µM) | 0.033 µg/mL (≈ 0.125 µM) | –
O=C1C(=O)c2c(nc3ccc(Cl)cn23)-c2ncccc21 [실시예 3, 8-클로로-1,6b,11-트리아자-벤조[3,2-a]플루오렌-5,6-디온] | – | – | – | – | – | 0.65 µg/mL (≈ 2.29 µM) | 0.99 µg/mL (≈ 3.49 µM) | 0.55 µg/mL (≈ 1.94 µM) | 0.59 µg/mL (≈ 2.08 µM) | 0.45 µg/mL (≈ 1.59 µM) | –
COc1cc(C2c3cc4c(cc3C(OC3OC5COC(C)OC5C(O)C3O)C3COC(=O)C23)OCO4)cc(OC)c1O (stereo not shown) [에토포시드, reference compound] | 1.37 µg/mL (≈ 2.33 µM) | 0.97 µg/mL (≈ 1.65 µM) | 1.84 µg/mL (≈ 3.13 µM) | 0.577 µg/mL (≈ 0.98 µM) | 1.43 µg/mL (≈ 2.43 µM) | – | – | – | – | – | –
2-메틸-4a,10,11-트리아자-벤조[3,2-a]플루오렌-5,6-디온 | – | – | – | – | – | – | – | – | – | – | 독소루비신보다 항암효과가 우수함
